{
  "source": "the supplement of paper PMC10307832",
  "assay_in_all_cases": "relative viability (nuclei count vs DMSO), 5 days (fraction); higher = more cells survive",
  "key": {"[1]": {"system": "201T", "summary_of_the_method": "(§1)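 One day after seeding in 1536-well plates, lung cancer cell lines were dosed by pin tool. Dosing was either single-drug or a fixed anchor-drug dose plus five library-drug doses (not always all listed) in √10 steps. After 5 days, nuclei were stained in one fix-and-stain step and counted on 4× images, and relative viability is the nuclei count of treated wells over that of vehicle wells, given as the median of duplicate plates.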"}, "[2]": {"system": "BEN", "summary_of_the_method": "as §1"}, "[3]": {"system": "COR-L 105", "summary_of_the_method": "as §1"}, "[4]": {"system": "EMC-BAC-2", "summary_of_the_method": "as §1"}, "[5]": {"system": "H3255", "summary_of_the_method": "as §1"}, "[6]": {"system": "HARA", "summary_of_the_method": "as §1"}, "[7]": {"system": "HCC-78", "summary_of_the_method": "as §1"}, "[8]": {"system": "HOP-62", "summary_of_the_method": "as §1"}, "[9]": {"system": "LC-2-ad", "summary_of_the_method": "as §1"}, "[10]": {"system": "LOU-NH91", "summary_of_the_method": "as §1"}, "[11]": {"system": "LU99A", "summary_of_the_method": "as §1"}, "[12]": {"system": "LXF-289", "conditions": "first compound 0.002 µM", "summary_of_the_method": "as §1"}},
  "data": [
    {"smiles": "CCNC(=O)c1noc(-c2cc(C(C)C)c(O)cc2O)c1-c1ccc(CN2CCOCC2)cc1", "note": "[Luminespib] + Cc1nc(NC(=O)N2CCC[C@H]2C(N)=O)sc1-c1ccnc(C(C)(C)C(F)(F)F)c1 [Alpelisib] (partner 2 µM)", "values": [
      {"measurement": "relative viability", "setting": "[1]; first compound 0.002 µM", "result": 0.965},
      {"measurement": "relative viability", "setting": "[1]; first compound 0.006325 µM", "result": 1.01},
      {"measurement": "relative viability", "setting": "[1]; first compound 0.02 µM", "result": 0.96},
      {"measurement": "relative viability", "setting": "[1]; first compound 0.06325 µM", "result": 1.04},
      {"measurement": "relative viability", "setting": "[1]; first compound 0.2 µM", "result": 1.03},
      {"measurement": "relative viability", "setting": "[2]; first compound 0.002 µM", "result": 1.1},
      {"measurement": "relative viability", "setting": "[2]; first compound 0.006325 µM", "result": 0.964},
      {"measurement": "relative viability", "setting": "[2]; first compound 0.02 µM", "result": 0.393},
      {"measurement": "relative viability", "setting": "[2]; first compound 0.06325 µM", "result": 0.709},
      {"measurement": "relative viability", "setting": "[2]; first compound 0.2 µM", "result": 0.224},
      {"measurement": "relative viability", "setting": "[3]; first compound 0.002 µM", "result": 1.04},
      {"measurement": "relative viability", "setting": "[3]; first compound 0.006325 µM", "result": 0.96},
      {"measurement": "relative viability", "setting": "[3]; first compound 0.02 µM", "result": 1.35},
      {"measurement": "relative viability", "setting": "[3]; first compound 0.06325 µM", "result": 0.343},
      {"measurement": "relative viability", "setting": "[3]; first compound 0.2 µM", "result": 0.181},
      {"measurement": "relative viability", "setting": "[4]; first compound 0.002 µM", "result": 0.746},
      {"measurement": "relative viability", "setting": "[4]; first compound 0.006325 µM", "result": 0.707},
      {"measurement": "relative viability", "setting": "[4]; first compound 0.02 µM", "result": 0.61},
      {"measurement": "relative viability", "setting": "[4]; first compound 0.06325 µM", "result": 0.771},
      {"measurement": "relative viability", "setting": "[4]; first compound 0.2 µM", "result": 0.762},
      {"measurement": "relative viability", "setting": "[5]; first compound 0.002 µM", "result": 0.775},
      {"measurement": "relative viability", "setting": "[5]; first compound 0.006325 µM", "result": 0.636},
      {"measurement": "relative viability", "setting": "[5]; first compound 0.02 µM", "result": 0.508},
      {"measurement": "relative viability", "setting": "[5]; first compound 0.06325 µM", "result": 0.586},
      {"measurement": "relative viability", "setting": "[5]; first compound 0.2 µM", "result": 0.195},
      {"measurement": "relative viability", "setting": "[6]; first compound 0.002 µM", "result": 0.835},
      {"measurement": "relative viability", "setting": "[6]; first compound 0.006325 µM", "result": 0.676},
      {"measurement": "relative viability", "setting": "[6]; first compound 0.02 µM", "result": 0.85},
      {"measurement": "relative viability", "setting": "[6]; first compound 0.06325 µM", "result": 0.759},
      {"measurement": "relative viability", "setting": "[6]; first compound 0.2 µM", "result": 0.103},
      {"measurement": "relative viability", "setting": "[7]; first compound 0.002 µM", "result": 0.309},
      {"measurement": "relative viability", "setting": "[7]; first compound 0.06325 µM", "result": 0.585},
      {"measurement": "relative viability", "setting": "[7]; first compound 0.2 µM", "result": 0.216},
      {"measurement": "relative viability", "setting": "[8]; first compound 0.002 µM", "result": 1.17},
      {"measurement": "relative viability", "setting": "[8]; first compound 0.006325 µM", "result": 0.79},
      {"measurement": "relative viability", "setting": "[8]; first compound 0.02 µM", "result": 0.603},
      {"measurement": "relative viability", "setting": "[8]; first compound 0.06325 µM", "result": 0.788},
      {"measurement": "relative viability", "setting": "[8]; first compound 0.2 µM", "result": 0.927},
      {"measurement": "relative viability", "setting": "[9]; first compound 0.002 µM", "result": 0.881},
      {"measurement": "relative viability", "setting": "[9]; first compound 0.006325 µM", "result": 0.821},
      {"measurement": "relative viability", "setting": "[9]; first compound 0.02 µM", "result": 0.858},
      {"measurement": "relative viability", "setting": "[9]; first compound 0.06325 µM", "result": 0.123},
      {"measurement": "relative viability", "setting": "[9]; first compound 0.2 µM", "result": 0.092},
      {"measurement": "relative viability", "setting": "[10]; first compound 0.002 µM", "result": 0.717},
      {"measurement": "relative viability", "setting": "[10]; first compound 0.006325 µM", "result": 0.646},
      {"measurement": "relative viability", "setting": "[10]; first compound 0.02 µM", "result": 0.543},
      {"measurement": "relative viability", "setting": "[10]; first compound 0.06325 µM", "result": 0.43},
      {"measurement": "relative viability", "setting": "[10]; first compound 0.2 µM", "result": 0.381},
      {"measurement": "relative viability", "setting": "[11]; first compound 0.002 µM", "result": 0.534},
      {"measurement": "relative viability", "setting": "[11]; first compound 0.006325 µM", "result": 0.526},
      {"measurement": "relative viability", "setting": "[11]; first compound 0.02 µM", "result": 0.311},
      {"measurement": "relative viability", "setting": "[11]; first compound 0.06325 µM", "result": 0.11},
      {"measurement": "relative viability", "setting": "[11]; first compound 0.2 µM", "result": 0.0992},
      {"measurement": "relative viability", "setting": "[12]", "result": 1.03}
    ]}
  ]
}
